Results reported in ChEMBL document CHEMBL1131686, “Synthesis and biological activities of topoisomerase I inhibitors, 6-N-amino analogues of NB-506” (Bioorg Med Chem Lett, 1999).

Legend:
[1] = target: Epidermal growth factor receptor (Homo sapiens, UniProt P00533); assay: In vitro activity against Epidermal growth factor receptor (using poly(Glu4Tyr1) as a substrate)
DNA topoisomerase 1 = target: T1, DNA topoisomerase 1 (Homo sapiens, UniProt P11387); assay: In vitro activity against topoisomerase-1 mediated cleavage of supercoiled pBR322 plasmid DNA; type: functional
T1 sequence (P11387 whole entry): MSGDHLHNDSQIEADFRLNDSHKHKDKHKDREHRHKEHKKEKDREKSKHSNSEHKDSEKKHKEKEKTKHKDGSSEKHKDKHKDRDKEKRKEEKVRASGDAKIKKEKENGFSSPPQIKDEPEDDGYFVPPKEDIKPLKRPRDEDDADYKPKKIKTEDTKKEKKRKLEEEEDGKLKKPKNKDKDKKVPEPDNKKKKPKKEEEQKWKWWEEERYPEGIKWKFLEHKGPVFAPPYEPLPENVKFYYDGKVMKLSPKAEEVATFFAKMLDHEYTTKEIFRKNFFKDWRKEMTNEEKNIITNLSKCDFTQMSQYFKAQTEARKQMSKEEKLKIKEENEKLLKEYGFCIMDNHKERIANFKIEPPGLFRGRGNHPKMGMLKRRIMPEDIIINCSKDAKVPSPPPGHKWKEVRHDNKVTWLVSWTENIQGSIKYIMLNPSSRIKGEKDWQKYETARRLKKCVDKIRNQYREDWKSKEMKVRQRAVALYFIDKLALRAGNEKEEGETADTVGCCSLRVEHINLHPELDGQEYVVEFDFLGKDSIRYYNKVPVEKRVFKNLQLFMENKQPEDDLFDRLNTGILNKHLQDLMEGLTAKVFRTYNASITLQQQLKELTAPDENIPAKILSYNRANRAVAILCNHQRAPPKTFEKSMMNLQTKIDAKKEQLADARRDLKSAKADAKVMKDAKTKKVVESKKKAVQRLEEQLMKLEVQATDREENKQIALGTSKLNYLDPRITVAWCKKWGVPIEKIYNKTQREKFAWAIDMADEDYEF

P388 [2] = assay: Effect on the formation of protein-DNA complex in P388 cells K+/SDS method; type: functional, Mus musculus
DNA topoisomerase II = DNA topoisomerase II (Homo sapiens, UniProt P11388+Q02880); assay: In vitro activity against topoisomerase-2 mediated cleavage of supercoiled pBR322 plasmid DNA; type: functional
[3] = target: Protein kinase C alpha type (Homo sapiens, UniProt P17252); assay: In vitro activity evaluated against protein kinase C (using histone II-As as a substrate)
MKN-45 [4] = assay: In vitro cytotoxicity (CTX) against human stomach cancer cells (MKN-45) using sulforhodamine B dye-staining method; type: functional, cell-based
P388 [5] = assay: In vitro cytotoxicity (CTX) against murine leukemia cells (P388) using colorimetric tetrazolium-formazan method; type: functional, cell-based; details: Mus musculus
Mus musculus = assay: Cytotoxicity against human stomach cancer cells (MKN-45) implanted subcutaneously into a side flank of nude mice; type: functional, Cancer cell lines
[6] = Lethal dose after intravenous administration (5 times/week for 2 weeks after tumor grew to 0.2 cme3 or larger) in mice; type: toxicity; details: mouse, in vivo, 336 h
MKN-45 [7] = assay: Cytotoxicity against human stomach cancer cells (MKN-45) after intravenous administration (5 times/week for 2 weeks after tumor grew to 0.2 cme3 or larger); type: functional, cell-based; details: MKN-45, 336 h

Epidermal growth factor receptor, sequence (P00533 whole entry): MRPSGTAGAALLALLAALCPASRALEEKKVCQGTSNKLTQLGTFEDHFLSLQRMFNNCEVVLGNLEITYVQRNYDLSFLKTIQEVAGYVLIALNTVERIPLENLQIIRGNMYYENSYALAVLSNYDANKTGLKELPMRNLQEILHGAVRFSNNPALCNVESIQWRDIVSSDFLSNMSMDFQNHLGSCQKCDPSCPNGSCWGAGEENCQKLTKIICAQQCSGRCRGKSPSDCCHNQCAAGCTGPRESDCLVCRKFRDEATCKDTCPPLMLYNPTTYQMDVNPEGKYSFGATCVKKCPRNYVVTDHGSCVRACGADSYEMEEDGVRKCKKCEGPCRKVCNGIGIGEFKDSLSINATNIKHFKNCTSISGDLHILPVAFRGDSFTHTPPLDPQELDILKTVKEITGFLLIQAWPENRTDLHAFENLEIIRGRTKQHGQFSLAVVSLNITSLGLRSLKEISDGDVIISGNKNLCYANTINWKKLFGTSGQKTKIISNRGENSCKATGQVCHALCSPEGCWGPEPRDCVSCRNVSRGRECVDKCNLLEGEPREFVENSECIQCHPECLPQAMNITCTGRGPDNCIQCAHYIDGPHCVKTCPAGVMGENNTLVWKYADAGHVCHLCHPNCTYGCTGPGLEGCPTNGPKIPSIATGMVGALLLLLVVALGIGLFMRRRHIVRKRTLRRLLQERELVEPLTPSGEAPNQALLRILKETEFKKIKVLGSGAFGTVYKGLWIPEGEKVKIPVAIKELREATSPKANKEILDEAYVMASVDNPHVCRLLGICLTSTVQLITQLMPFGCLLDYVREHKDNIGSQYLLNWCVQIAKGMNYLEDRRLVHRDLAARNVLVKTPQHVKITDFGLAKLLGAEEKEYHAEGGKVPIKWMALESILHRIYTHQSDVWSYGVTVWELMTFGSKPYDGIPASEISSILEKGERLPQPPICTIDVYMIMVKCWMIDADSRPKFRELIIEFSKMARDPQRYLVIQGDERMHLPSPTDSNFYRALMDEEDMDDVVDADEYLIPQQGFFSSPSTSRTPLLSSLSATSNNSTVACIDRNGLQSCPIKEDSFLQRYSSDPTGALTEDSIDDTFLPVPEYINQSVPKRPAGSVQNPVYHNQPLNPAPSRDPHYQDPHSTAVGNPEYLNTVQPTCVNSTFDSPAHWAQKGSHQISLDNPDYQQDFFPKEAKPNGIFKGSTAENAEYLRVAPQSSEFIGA

| Compound | IC50 [1] | EC50 (DNA topoisomerase 1) | EC200 (P388 [2]) | EC50 (DNA topoisomerase II) | IC50 [3] | IC50 (MKN-45 [4]) | IC50 (P388 [5]) | GID75 (Mus musculus) | LD10 [6] | IC50 (MKN-45 [7]) |
| --- | --- | --- | --- | --- | --- | --- | --- | --- | --- | --- |
| Cc1ccc(S(=O)(=O)NN2C(=O)c3c(c4c5cccc(O)c5n(C5OC(CO)C(O)C(O)C5O)c4c4[nH]c5c(O)cccc5c34)C2=O)cc1 (configuration not stated) | > 200 µM | 0.27 µM | >10 µM | > 50 µM | 12 µM | – | – | – | – | – |
| CN(C)N1C(=O)c2c(c3c4cccc(O)c4n(C4OC(CO)C(O)C(O)C4O)c3c3[nH]c4c(O)cccc4c23)C1=O (configuration not stated) | > 200 µM | > 10 µM | >10 µM | > 50 µM | 59 µM | > 10 µM | 1.6 µM | – | – | – |
| CCC(=O)NN1C(=O)c2c(c3c4cccc(O)c4n(C4OC(CO)C(O)C(O)C4O)c3c3[nH]c4c(O)cccc4c23)C1=O (configuration not stated) | > 200 µM | 0.48 µM | 6 µM | > 50 µM | 36 µM | 0.19 µM | 0.045 µM | – | – | – |
| O=C(NN1C(=O)c2c(c3c4cccc(O)c4n(C4OC(CO)C(O)C(O)C4O)c3c3[nH]c4c(O)cccc4c23)C1=O)c1ccccc1 (configuration not stated) | > 200 µM | 0.052 µM | 10 µM | – | 35 µM | 0.048 µM | 0.012 µM | – | – | – |
| NC(=O)NN1C(=O)c2c(c3c4cccc(O)c4n(C4OC(CO)C(O)C(O)C4O)c3c3[nH]c4c(O)cccc4c23)C1=O (configuration not stated) | > 200 µM | 0.36 µM | 2.8 µM | > 50 µM | > 200 µM | 0.27 µM | 0.035 µM | – | – | – |
| CNN1C(=O)c2c(c3c4cccc(O)c4n(C4OC(CO)C(O)C(O)C4O)c3c3[nH]c4c(O)cccc4c23)C1=O (configuration not stated) | 100 µM | 0.35 µM | 2.5 µM | > 50 µM | 55 µM | 0.13 µM | 0.075 µM | – | – | – |
| NN1C(=O)c2c(c3c4cccc(O)c4n(C4OC(CO)C(O)C(O)C4O)c3c3[nH]c4c(O)cccc4c23)C1=O (configuration not stated) | > 200 µM | 0.27 µM | 0.5 µM | > 50 µM | > 200 µM | 0.13 µM | 0.04 µM | – | – | – |
| N#CCC(=O)NN1C(=O)c2c(c3c4cccc(O)c4n(C4OC(CO)C(O)C(O)C4O)c3c3[nH]c4c(O)cccc4c23)C1=O (configuration not stated) | > 200 µM | 0.55 µM | 20 µM | > 50 µM | 65 µM | 1.9 µM | 0.49 µM | – | – | – |
| O=C(Nc1ccccc1)NN1C(=O)c2c(c3c4cccc(O)c4n(C4OC(CO)C(O)C(O)C4O)c3c3[nH]c4c(O)cccc4c23)C1=O (configuration not stated) | 95 µM | 0.25 µM | >10 µM | – | 6.8 µM | 0.25 µM | 0.25 µM | – | – | – |
| CC(=O)NN1C(=O)c2c(c3c4cccc(O)c4n(C4OC(CO)C(O)C(O)C4O)c3c3[nH]c4c(O)cccc4c23)C1=O (configuration not stated) | > 200 µM | 1 µM | 2 µM | > 50 µM | 130 µM | 0.26 µM | 0.15 µM | – | – | – |
| O=C1NC(=O)c2c1c1c3cccc(O)c3[nH]c1c1[nH]c3c(O)cccc3c21 | 29 µM | > 3 µM | 3 µM | > 50 µM | 40 µM | – | 2 µM | – | – | – |
| O=C1NC(=O)c2c1c1c3cccc(O)c3[nH]c1c1c2c2cccc(O)c2n1C1OC(CO)C(O)C(O)C1O (configuration not stated) | 90 µM | 3 µM | 2 µM | > 50 µM | 3.8 µM | 0.54 µM | 0.044 µM | – | – | – |
| CN(C)CC(=O)NN1C(=O)c2c(c3c4cccc(O)c4n(C4OC(CO)C(O)C(O)C4O)c3c3[nH]c4c(O)cccc4c23)C1=O (configuration not stated) | > 200 µM | 0.17 µM | >10 µM | – | > 200 µM | 0.46 µM | 0.26 µM | – | – | – |
| CCCNN1C(=O)c2c(c3c4cccc(O)c4n(C4OC(CO)C(O)C(O)C4O)c3c3[nH]c4c(O)cccc4c23)C1=O (configuration not stated) | 59 µM | 1.2 µM | 6.3 µM | > 50 µM | 65 µM | 0.21 µM | 0.055 µM | – | – | – |
| O=C1c2c(c3c4cccc(O)c4n(C4OC(CO)C(O)C(O)C4O)c3c3[nH]c4c(O)cccc4c23)C(=O)N1NCc1cccc(O)c1 (configuration not stated) | > 200 µM | 0.3 µM | 0.26 µM | > 50 µM | 13 µM | 0.012 µM | 0.007 µM | – | – | – |
| O=C(NN1C(=O)c2c(c3c4cccc(O)c4n(C4OC(CO)C(O)C(O)C4O)c3c3[nH]c4c(O)cccc4c23)C1=O)c1ccccn1 (configuration not stated) | > 200 µM | 0.09 µM | >10 µM | > 50 µM | 41 µM | 2.5 µM | 0.47 µM | – | – | – |
| O=C(O)c1ccc(NN2C(=O)c3c(c4c5cccc(O)c5n(C5OC(CO)C(O)C(O)C5O)c4c4[nH]c5c(O)cccc5c34)C2=O)cc1 (configuration not stated) | 90 µM | 0.16 µM | >50 µM | > 50 µM | 23 µM | > 10 µM | 6.5 µM | – | – | – |
| O=C(O)CNN1C(=O)c2c(c3c4cccc(O)c4n(C4OC(CO)C(O)C(O)C4O)c3c3[nH]c4c(O)cccc4c23)C1=O (configuration not stated) | > 200 µM | 9.5 µM | >10 µM | > 50 µM | 110 µM | 2.9 µM | 0.8 µM | – | – | – |
| CS(=O)(=O)NN1C(=O)c2c(c3c4cccc(O)c4n(C4OC(CO)C(O)C(O)C4O)c3c3[nH]c4c(O)cccc4c23)C1=O (configuration not stated) | > 200 µM | 0.58 µM | >10 µM | > 50 µM | > 200 µM | 0.27 µM | 0.06 µM | – | – | – |
| CCNN1C(=O)c2c(c3c4cccc(O)c4n(C4OC(CO)C(O)C(O)C4O)c3c3[nH]c4c(O)cccc4c23)C1=O (configuration not stated) | > 200 µM | 3.5 µM | 1.2 µM | > 50 µM | > 200 µM | 0.059 µM | 0.018 µM | >1500 mg/me2 | > 1500 mg/me2 | 0.059 µM |
